Entries after “also recorded” stand apart in the source; their conditions may differ.
Columns and labels:
[1] = In vivo accumulation of ERr 731® ingredients in dog plasma (100, 300, 1000 mg/kg/day); parameters: species or system dog (pure-bred beagles); conditions: male and female dogs, ERr 731® 100, 300, 1000 mg/kg body weight/day, day 1
Protocol: (§1) These plasma samples were processed as follows: 500 μl of plasma were mixed with 25 μl of an internal standard working solution (2.5 ng/μl rhaponticin or rhapontigenin in methanol) and then mixed with 500 μl of isotonic NaCl solution and 2.5 ml of diethyl ether/butanol (9/1; v/v). After shaking and centrifugation (10 minutes at 4600 rpm), about 2 ml of the supernatant were removed and dried under a stream of nitrogen (at 60° C.). The pellet was taken up in 50 μl of methanol. Addition of 200 μl of distilled water was followed by renewed mixing, and 200 μl were pipetted into autosampler tubes (light-protected). 30 μl of the samples were injected for analysis into an LC-MS/MS system (PE Sciex API 3000). Chromatographic separation of the analytes took place on a Phenomenex Polymer X column with a gradient of an ammonium buffer solution and an acetonitrile/methanol mixture as mobile phase.
On day 1, 5 ml of blood were taken from the animals after 0, 0.5, 1, 2, 4, 8 and 24 hours in each case, and plasma was obtained. The analysis as described in section a) was carried out thereon in order to detect rhaponticin, deoxyrhaponticin, rhapontigenin, deoxyrhapontigenin, resveratrol and piceatannol in blood. The results of the test are depicted in FIG. 2a.

[2] = Dissolving tests with ERr 731® in ethanol and glycerol; assay type: physicochemical
[3] = biological target: T1, estrogen receptor β (ERβ) (Homo sapiens, UniProt Q92731); experiment: ERβ/mC3-luciferase transactivation in transfected HEC-1B cells; assay type: cell-based; conditions: HEC-1B cells cotransfected with hERβ and mC3-Luc, 24 hours incubation
T1 construct: expressed in transfected cells; host or cells: HEC-1B human endometrial adenocarcinoma cells (no endogenous ERα or ERβ)
Text: They therefore represent a possible way of investigating, in a human and endometrial context, ligand-dependent effects of substances on the transactivation mechanisms in relation to different receptor subtypes and different estrogen-responsive promoters.
An established ERβ/mC3-luciferase system was employed. For this purpose, HEC-1B cells were applied in 24-well plates with a density of 95 000 cells/well (in Dulbecco's modified Essential Medium (DMEM/F12)). The next day, they were cotransfected with an ERβ-containing construct (hERβ/pSG2) and a triple-ERE-containing promoter/luciferase construct (mC3-Luc/pGL2) (Hillisch et al. Dissecting physiological roles of estrogen receptor alpha and beta with potent selective ligands from structure-based design. Mol. Endocrinol. 2004 July; 18:1599-609). The transient transfection took place using DOTAP (N-[1-(2,3-dioleoyloxy)]-N,N,N-trimethylammoniumpropane methylsulfate, Roth) as described by the manufacturer.
After 24 hours, the cells were treated with appropriate concentrations of the substances or substance mixtures to be investigated. […] The incubation time was 24 hours. The cells were then lysed. The Luciferase Assay® kit (Promega) was used to determine the luciferase activity on the one hand, and the BCA® kit (Sigma) was used to determine the protein content on the other hand. […]

[4] = test system: transcription factor NF-κB; conditions: cited from earlier work
[5] = test system: hormone-sensitive and -insensitive prostate cancer cells; conditions: pure resveratrol; cited from earlier work
[6] = test system: HL60 leukemia cells; conditions: cited from earlier work
[7] = test system: AR-dependent gene expression; conditions: depending on the concentration; cited from earlier work
[8] = Pharmacokinetics of ERr 731® ingredients in subject after oral intake (plasma, LC-MS/MS); assay type: in vivo, human; conditions: volunteer
Protocol: Subsequently, 10 ml of blood was taken at various times (as indicated in FIG. 1) and the plasma was obtained by centrifugation.
as §1

[9] = test system: bacteria of the human intestinal tract; conditions: cited from earlier work
[10] = Test A: 200 mg of dry extract in 50 ml of glycerol R
[11] = Test B: 200 mg of dry extract in 50 ml of ethanol 30% R
[12] = Test C: 200 mg of dry extract in 50 ml of ethanol 50% R
[13] = Test D: 200 mg of dry extract in 50 ml of ethanol 86% R

T1 sequence (Q92731 whole entry): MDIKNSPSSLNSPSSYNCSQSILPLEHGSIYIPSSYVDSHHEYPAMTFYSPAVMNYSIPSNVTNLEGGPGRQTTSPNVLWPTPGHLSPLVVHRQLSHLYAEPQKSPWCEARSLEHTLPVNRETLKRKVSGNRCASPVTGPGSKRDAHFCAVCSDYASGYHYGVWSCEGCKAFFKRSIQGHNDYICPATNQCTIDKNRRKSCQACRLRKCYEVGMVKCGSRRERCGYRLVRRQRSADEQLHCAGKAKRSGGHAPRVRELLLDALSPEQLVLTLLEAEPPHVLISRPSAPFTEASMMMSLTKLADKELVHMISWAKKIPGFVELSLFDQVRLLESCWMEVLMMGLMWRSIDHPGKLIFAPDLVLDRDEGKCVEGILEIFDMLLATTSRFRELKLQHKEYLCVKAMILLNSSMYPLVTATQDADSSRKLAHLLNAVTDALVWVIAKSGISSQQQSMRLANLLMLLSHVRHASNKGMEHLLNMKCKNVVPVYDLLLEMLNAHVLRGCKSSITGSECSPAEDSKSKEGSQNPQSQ

SMILES | accumulation (AUC 0-24 h) in dog plasma [1] | content found dissolved [2, 10] | dissolved, of theory [2, 10] | content found dissolved [2, 11] | dissolved, of theory [2, 11] | content found dissolved [2, 12] | dissolved, of theory [2, 12] | content found dissolved [2, 13] | dissolved, of theory [2, 13] | effect on transcription factor NF-κB [4] | other results
COc1ccc(C=Cc2cc(O)cc(O[C@@H]3O[C@H](CO)[C@@H](O)[C@H](O)[C@H]3O)c2)cc1 [deoxyrhaponticin] | dose-dependent accumulation | 27.1% deoxyrhaponticin | (90.6% of theory) | 25.2% deoxyrhaponticin | (84.2% of theory) | 29.0% deoxyrhaponticin | (97.0% of theory) | 29.5% deoxyrhaponticin | (98.7% of theory) |  | 
COc1ccc(C=Cc2cccc(O)c2)cc1O [deoxyrhapontigenin, 3′,5-Dihydroxy-4′-methoxystilbene] | undetectable |  |  |  |  |  |  |  |  |  | activation of ERβ (relative luciferase activity vs DMSO control) [3]: activate the ERβ dose-dependently; also recorded: effective only at higher concentrations
Oc1cc(O)cc(/C=C/c2ccc(O)c(O)c2)c1 [piceatannol] |  |  |  |  |  |  |  |  |  | inhibitory effect | 
Oc1ccc(C=Cc2cc(O)cc(O)c2)cc1 [resveratrol] |  |  |  |  |  |  |  |  |  |  | apoptotic effect on prostate cancer cells [5]: apoptotic effect; apoptotic effect on HL60 leukemia cells [6]: apoptotic effect; AR-dependent gene expression [7]: an increase or inhibition of AR-dependent gene expression was observed
COc1ccc(C=Cc2cc(O)cc(O[C@@H]3O[C@H](CO)[C@@H](O)[C@H](O)[C@H]3O)c2)cc1O [rhaponticin, 3,3′,5-Trihydroxy-4′-methoxystilbene 3-O-β-D-glucopyranoside] | dose-dependent accumulation | 55.1% rhaponticin | (89.0% of theory) | 52.2% rhaponticin | (84.3% of theory) | 58.8% rhaponticin | (95.0% of theory) | 59.8% rhaponticin | (96.6% of theory) | inactive | time of maximum in the blood ([8]; oral 40 mg ERr 731®): 3 to 4 h; detection in the blood (plasma) ([8]; oral 10 tablets = 40 mg ERr 731®): detected in the blood; degradation by intestinal bacteria [9]: degraded by bacteria of the human intestinal tract to rhapontigenin

Reference: patent US8268792B2, “Use of an active ingredient combination that contains hydroxystilbene for preventing and/or treating diseases” (Carl-Friedrich Spaich, priority 2005, dated 2012)
